In paper PMC337094 (BMC Biochemistry, 2003):

Key:
[1] = biological target: T1, riboflavin synthase of S. pombe (SSP-Rosy) (Schizosaccharomyces pombe, UniProt Q9Y7P0); experiment: […] NMR protein perturbation; format: binding; details: 20 mM phosphate pH 7.0, 100 mM KCl, 10% D2O, 11 °C
T1 sequence (Q9Y7P0 1-208): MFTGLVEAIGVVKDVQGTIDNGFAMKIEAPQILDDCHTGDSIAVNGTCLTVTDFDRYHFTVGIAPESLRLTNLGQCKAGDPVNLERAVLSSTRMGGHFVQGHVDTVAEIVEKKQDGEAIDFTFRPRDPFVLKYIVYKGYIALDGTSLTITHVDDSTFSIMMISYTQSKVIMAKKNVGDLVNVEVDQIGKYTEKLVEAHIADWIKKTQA

[2] = biological target: T2, recombinant N-terminal domain of E. coli riboflavin synthase (Escherichia coli, UniProt P0AFU8); experiment: […] NMR protein perturbation; format: binding; details: 20 mM phosphate pH 7.0, 100 mM KCl, 10% D2O, 11 °C
T2 sequence (P0AFU8 1-97): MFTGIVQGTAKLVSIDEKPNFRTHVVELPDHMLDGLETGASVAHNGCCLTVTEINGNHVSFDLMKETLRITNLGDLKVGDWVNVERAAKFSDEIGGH

[3] = biological target: T3, riboflavin synthase of B. subtilis (Bacillus subtilis, UniProt P16440); experiment: […] NMR protein perturbation; format: binding; details: 20 mM phosphate pH 7.0, 100 mM KCl, 10% D2O, 11 °C
T3 sequence (P16440 1-215): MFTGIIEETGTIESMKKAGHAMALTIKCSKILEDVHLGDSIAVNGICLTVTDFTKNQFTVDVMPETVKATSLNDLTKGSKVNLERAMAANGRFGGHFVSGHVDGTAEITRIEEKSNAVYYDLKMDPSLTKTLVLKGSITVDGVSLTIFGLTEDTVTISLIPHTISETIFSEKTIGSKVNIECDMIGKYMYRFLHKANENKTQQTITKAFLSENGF

[4] = biological target: lumazine protein of P. leiognathi (Photobacterium leiognathi, UniProt Q06877); experiment: […] NMR protein perturbation; format: binding; details: 20 mM phosphate pH 7.0, 100 mM KCl, 10% D2O, 11 °C
[5] = biological target: T4, riboflavin synthase of E. coli (Escherichia coli, UniProt P0AFU8); experiment: […] NMR protein perturbation; format: binding; details: 20 mM phosphate pH 7.0, 100 mM KCl, 10% D2O, 11 °C
T4 sequence (P0AFU8 1-213): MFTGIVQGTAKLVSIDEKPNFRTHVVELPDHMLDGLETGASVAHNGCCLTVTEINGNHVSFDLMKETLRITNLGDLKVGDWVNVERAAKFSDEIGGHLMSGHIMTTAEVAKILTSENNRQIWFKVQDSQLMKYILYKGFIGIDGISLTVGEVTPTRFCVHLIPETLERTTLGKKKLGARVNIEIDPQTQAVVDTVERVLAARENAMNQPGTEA

[6] = biological target: T1, riboflavin synthase of S. pombe (SSP-Rosy); experiment: […] NMR displacement of compound 6a; format: binding; details: 20 mM phosphate pH 7.0, 100 mM KCl, 10% D2O, 11 °C; data not shown
AUC = biological target: the molecule itself; experiment: AUC

Sequence of lumazine protein of P. leiognathi (Q06877 whole entry): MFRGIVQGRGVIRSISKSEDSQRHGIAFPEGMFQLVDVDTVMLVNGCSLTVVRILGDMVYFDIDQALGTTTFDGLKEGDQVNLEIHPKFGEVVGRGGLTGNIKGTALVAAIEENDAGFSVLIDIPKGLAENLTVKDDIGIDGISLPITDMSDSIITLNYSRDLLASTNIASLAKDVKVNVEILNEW

Q: O=c1[nH]c(=O)c2nc(C(F)(F)F)c(=O)n(C[C@H](O)[C@H](O)[C@H](O)CO)c2[nH]1 [compound 7, 6-trifluoromethyl-7-oxo-8-ribityllumazine] was tested. Which “19F NMR bound-ligand signal” value [1] did it give?
A: in complex with riboflavin synthase of S. pombe shows four signals

Q: What about the “19F NMR bound-ligand signal” value [2] of the same molecule?
A: show single and much narrower lines for the protein bound ligand

Q: What about the “19F NMR bound-ligand signal” value [3] of the same molecule?
A: B. subtilis (Fig. 5D) show similar signal multiplicities

Q: And the “19F NMR bound-ligand signal” value [4]?
A: lumazine protein (Fig. 5A)

Q: What about the “19F NMR bound-ligand signal” value [5] of the same molecule?
A: The riboflavin synthases of E. coli (Fig. 5C)

Q: What does the source list for O=c1[nH]c2c(c(=O)[nH]1)N=C(C(F)(F)F)[C@@](O)(C(F)(F)F)N2C[C@H](O)[C@H](O)[C@H](O)CO (single isomer, unassigned; epimer a) [6a, 6,7-bis(trifluoromethyl)-8-ribityllumazine hydrate (epimer A)]?
A: 19F NMR bound-ligand signal [1]: riboflavin synthase of S. pombe binds epimer A; 19F NMR bound-ligand signal [2]: show single lines for each trifluoromethyl group of bound Compound 6a; 19F NMR bound-ligand signal [3]: the riboflavin synthases (Figs. 6C,6D,6E) studied show multiple signals; 19F NMR bound-ligand signal [4]: show single lines for each trifluoromethyl group of bound Compound 6a; 19F NMR bound-ligand signal [5]: the riboflavin synthases (Figs. 6C,6D,6E) studied show multiple signals

Q: For Cc1cc2nc3c(=O)[nH]c(=O)nc-3n(C[C@H](O)[C@H](O)[C@H](O)CO)c2cc1C [compound 4, riboflavin], which “19F NMR displacement of compound 6a” value [6] is on record?
A: could be displaced from S. pombe protein by addition of riboflavin

B1: Riboflavin synthase of Schizosaccharomyces pombe (enzyme, UniProt Q9Y7P0 1-208, looked up)
chain: T1 sequence (Q9Y7P0 1-208)
Q: How did the “stoichiometry N” value (AUC) turn out when B1 was run?
A: 3
